Experimental data taken from US5965699A (priority 1996, dated 1999).
Read-outs that look alike come from different tables or passages of the source.

How the values were obtained:
[1] = target: T1, botox A (Clostridium botulinum, UniProt P0DPI1); type: biochemical; design: Rate (initial rate of peptide hydrolysis) / Rate (initial rate of hydrolysis) In AcBSA: unit not given here; conditions: for kcat: in 1/s
[2] = target: T1, botox A; test: biochemical; conditions: for inhibition at 1000 µM: read-out: inhibition of hydrolysis of peptide [1-17]
[3] = target: T1, botox A

T1 sequence (P0DPI1 2-448 limits assumed): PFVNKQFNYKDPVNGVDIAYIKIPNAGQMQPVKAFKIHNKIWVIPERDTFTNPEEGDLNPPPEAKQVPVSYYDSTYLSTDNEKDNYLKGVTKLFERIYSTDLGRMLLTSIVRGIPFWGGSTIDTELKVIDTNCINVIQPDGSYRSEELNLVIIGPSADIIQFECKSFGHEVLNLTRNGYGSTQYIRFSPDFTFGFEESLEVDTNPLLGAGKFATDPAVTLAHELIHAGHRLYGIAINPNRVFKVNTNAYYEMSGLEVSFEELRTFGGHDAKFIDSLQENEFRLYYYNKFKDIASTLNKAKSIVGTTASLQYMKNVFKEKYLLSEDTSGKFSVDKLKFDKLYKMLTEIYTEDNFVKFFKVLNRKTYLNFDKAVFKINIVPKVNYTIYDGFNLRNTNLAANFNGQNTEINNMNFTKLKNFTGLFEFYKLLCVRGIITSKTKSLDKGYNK

Ac-SNKTRIDEAAQRATKML-NH2 [N10A, S N K T R I D E A A Q R A T K M L]
hydrolysis by botox A, described in words [1]: only very slowly cleaved | kcat as percent of that for peptide [1-17] [1]: about 4% | kcat [1]: 1.8 ± 0.1 | inhibition at 1000 µM [2]: 30%

Ac-SNKTRIDEANQRATK-NH2 [[1-15], S N K T R I D E A N Q R A T K]
Relative Rate (initial hydrolysis rates relative to peptide [1-17]) [1]: 0.03 | hydrolysis by botox A, described in words [1]: very slow rate of hydrolysis | kcat as percent of that for peptide [1-17] [1]: 2-3% | kcat [1]: ~1.0 | inhibition at 1000 µM [2]: 17%

Ac-SNKTRIDEANQRLTKML-NH2 [A13L, S N K T R I D E A N Q R L T K M L]
hydrolysis by botox A, described in words [1]: below the limits of detection | Ki [2]: 1000 to 2000 µM | inhibition at 1000 µM [2]: 30%

Ac-SNKTRINEANQRATKML-NH2 [D7N, S N K T R I N E A N Q R A T K M L]
Relative Rate (initial hydrolysis rates relative to peptide [1-17]) [1]: 0.23 | kcat as percent of that for peptide [1-17] [1]: about 10% | kcat [1]: 5.0 ± 0.3 | Km ([1]; read-out: Km): 820 ± 60 µM

Ac-SNRTRIDEANQRATRML-NH2 [peptide 2, S N R T R I D E A N Q R A T R M L]
Kcat In AcBSA [1]: 61 s⁻¹ | Kcat In BSA [1]: 68 s⁻¹ | Rate (initial rate of hydrolysis) In AcBSA [1]: 16 | Rate (initial rate of hydrolysis) In BSA [1]: 11 | Rate (initial rate of peptide hydrolysis) [1]: 11.3 ± 0.5 | Relative Rate [1]: 1.5 | hydrolysis by botox A, described in words [1]: slightly faster than peptide 1 | Km ([1]; read-out: Km In AcBSA): 530 µM | Km ([1]; read-out: Km In BSA): 1400 µM

Ac-SNRTRIDQANQRATRML-NH2 [compound 4, S N R T R I D Q A N Q R A T R M L]
Kcat In AcBSA [1]: 68 s⁻¹ | Kcat In BSA [1]: 64 s⁻¹ | Rate (initial rate of hydrolysis) In AcBSA [1]: 19 | Rate (initial rate of hydrolysis) In BSA [1]: 13 | Rate (initial rate of peptide hydrolysis) [1]: 12.6 ± 0.5 | Relative Rate [1]: 1.7 | Km ([1]; read-out: Km In AcBSA): 470 µM | Km ([1]; read-out: Km In BSA): 760 µM

Ac-TRIDEANQRATKM-NH2 [13-residue peptide]
reduction in rate of botox A-catalyzed hydrolysis [1]: 43%

gelatin
effect on hydrolysis of substrate peptides by botox A [3]: no effect

lysozyme
effect on hydrolysis of substrate peptides by botox A [3]: no effect

ovalbumin
effect on hydrolysis of substrate peptides by botox A [3]: no effect

ribonuclease
effect on hydrolysis of substrate peptides by botox A [3]: no effect
